{
  "source": "ChEMBL document CHEMBL3988442",
  "about": "“University of Dundee, Small-Polar-MMV Screening Library” (2021)",
  "test_system": "Plasmodium falciparum",
  "test": "Calibr Malaria Delayed Death Assay SOP",
  "format": "functional, organism-based",
  "conditions": "for IC50: Plasmodium falciparum",
  "data": [
    {"smiles": "CC(C)c1nn(C)c(Cl)c1CNCC(O)c1cccc(F)c1.Cl", "note": "(stereo unspecified)", "values": [
      {"measurement": "pIC50", "result": 6.252},
      {"measurement": "IC50", "result": 392, "unit": "nM"}
    ]},
    {"smiles": "CN1CCC(N(C)C[C@H]2CC[C@@H](Cc3ccc4occc4c3)O2)CC1", "values": [
      {"measurement": "pIC50", "result": 6.011},
      {"measurement": "IC50", "result": 993, "unit": "nM"}
    ]},
    {"smiles": "Cc1cc2c(cc1CN1CCCCC1CCn1ccnc1C)OCO2", "note": "(stereo unspecified)", "values": [
      {"measurement": "pIC50", "result": 6.025},
      {"measurement": "IC50", "result": 1020, "unit": "nM"}
    ]},
    {"smiles": "CC(C)=CCN1CCC2(CC1)c1ccccc1[C@@H](N1CCSCC1)[C@@H]2O", "values": [
      {"measurement": "pIC50", "result": 5.994},
      {"measurement": "IC50", "result": 991, "unit": "nM"}
    ]},
    {"smiles": "Cn1ccnc1C(O)(CCNCc1ccc(Cl)o1)C(F)(F)F", "note": "(stereo unspecified)", "values": [
      {"measurement": "pIC50", "result": 5.844},
      {"measurement": "IC50", "result": 1740, "unit": "nM"}
    ]},
    {"smiles": "COCCC1(CNC(=O)Nc2ccnc(C)c2)CCCC1", "values": [
      {"measurement": "pIC50", "result": 6.054},
      {"measurement": "IC50", "result": 876, "unit": "nM"}
    ]},
    {"smiles": "CC(C)(C)C(=O)NCCNCc1ccc(Cl)c2cccnc12", "values": [
      {"measurement": "pIC50", "result": 6.099},
      {"measurement": "IC50", "result": 703, "unit": "nM"}
    ]},
    {"smiles": "COc1ccccc1CCN1CCCC(CN(C)Cc2ccc(C)o2)C1", "note": "(stereo unspecified)", "values": [
      {"measurement": "pIC50", "result": 5.915},
      {"measurement": "IC50", "result": 1030, "unit": "nM"}
    ]},
    {"smiles": "COc1cccc(Cn2c(C3CCNCC3)cc3cccnc32)c1.Cl", "values": [
      {"measurement": "pIC50", "result": 6.096},
      {"measurement": "IC50", "result": 931, "unit": "nM"}
    ]},
    {"smiles": "Cc1ccc(CN2CCC3(CC2)CCN(Cc2ccoc2)CC3)cc1.O=C(O)C(F)(F)F.O=C(O)C(F)(F)F", "values": [
      {"measurement": "pIC50", "result": 6.821},
      {"measurement": "IC50", "result": 202, "unit": "nM"}
    ]},
    {"smiles": "O=C(CN1CCCC(c2ccn[nH]2)C1)Nc1nc2c(s1)CCCC2", "note": "(stereo unspecified)", "values": [
      {"measurement": "pIC50", "result": 6.624},
      {"measurement": "IC50", "result": 248, "unit": "nM"}
    ]},
    {"smiles": "Cc1noc(C)c1CN1C[C@H]2CN(Cc3cccc(F)c3)C[C@H]2C1.O=C(O)C(F)(F)F.O=C(O)C(F)(F)F", "values": [
      {"measurement": "pIC50", "result": 5.762},
      {"measurement": "IC50", "result": 1220, "unit": "nM"}
    ]},
    {"smiles": "Cc1ccsc1CN(Cc1cccnc1)C1CC(C)(C)NC(C)(C)C1.O=C(O)CC(O)(CC(=O)O)C(=O)O", "values": [
      {"measurement": "pIC50", "result": 6.511},
      {"measurement": "IC50", "result": 290, "unit": "nM"}
    ]},
    {"smiles": "O=C(O)C(F)(F)F.O=C(O)C(F)(F)F.O=C(O)C(F)(F)F.c1ccc(CN2CCCC3(CCN(Cc4cccs4)C3)C2)nc1", "note": "(stereo unspecified)", "values": [
      {"measurement": "pIC50", "result": 6.204},
      {"measurement": "IC50", "result": 735, "unit": "nM"}
    ]},
    {"smiles": "Fc1cccc(CN2C[C@@H]3CN(Cc4ccccn4)C[C@@H]3C2)c1.O=C(O)C(F)(F)F.O=C(O)C(F)(F)F", "values": [
      {"measurement": "pIC50", "result": 6.169},
      {"measurement": "IC50", "result": 531, "unit": "nM"}
    ]},
    {"smiles": "CN1[C@H](Cn2cccn2)C[C@@H]2CN(Cc3cccs3)CC[C@@H]21.O=C(O)C(F)(F)F.O=C(O)C(F)(F)F.O=C(O)C(F)(F)F", "values": [
      {"measurement": "pIC50", "result": 6.221},
      {"measurement": "IC50", "result": 593, "unit": "nM"}
    ]},
    {"smiles": "Cl.Fc1cccc(F)c1Cn1c(C2CCCNC2)cc2cccnc21", "note": "(stereo unspecified)", "values": [
      {"measurement": "pIC50", "result": 6.143},
      {"measurement": "IC50", "result": 1050, "unit": "nM"}
    ]},
    {"smiles": "Cc1ccccc1CN(CCN(C)C)Cc1ccc(S(C)(=O)=O)cc1", "values": [
      {"measurement": "pIC50", "result": 5.997},
      {"measurement": "IC50", "result": 890, "unit": "nM"}
    ]},
    {"smiles": "COc1cc(C(=O)NCc2ccc3c(c2)CCCN3C)cc(OC)c1Br", "values": [
      {"measurement": "pIC50", "result": 6.846},
      {"measurement": "IC50", "result": 251, "unit": "nM"}
    ]},
    {"smiles": "CCN1CCCN(S(=O)(=O)c2cc3ccccc3o2)CC1", "values": [
      {"measurement": "pIC50", "result": 6.321},
      {"measurement": "IC50", "result": 532, "unit": "nM"}
    ]},
    {"smiles": "Cn1nc(CN2CCCCC(N)C2)c2c(Cl)cccc21", "note": "(stereo unspecified)", "values": [
      {"measurement": "pIC50", "result": 6.151},
      {"measurement": "IC50", "result": 800, "unit": "nM"}
    ]},
    {"smiles": "COCCn1ccnc1CN(Cc1ccccn1)Cc1sccc1C", "values": [
      {"measurement": "pIC50", "result": 6.065},
      {"measurement": "IC50", "result": 650, "unit": "nM"}
    ]},
    {"smiles": "CN(CCO)C[C@@H]1CN(C2CCN(c3ccccc3Cl)CC2)C[C@@H]1CO", "values": [
      {"measurement": "pIC50", "result": 6.408},
      {"measurement": "IC50", "result": 316, "unit": "nM"}
    ]},
    {"smiles": "COc1cccc(CN(C)Cc2[nH]c3ccccc3c2C)c1O", "values": [
      {"measurement": "pIC50", "result": 6.46},
      {"measurement": "IC50", "result": 310, "unit": "nM"}
    ]},
    {"smiles": "Cc1ccccc1CNCc1cc(Cl)ccc1O", "values": [
      {"measurement": "pIC50", "result": 6.395},
      {"measurement": "IC50", "result": 601, "unit": "nM"}
    ]},
    {"smiles": "CCN1CCN(c2ccc(F)cc2C(C)NCc2ccccn2)CC1", "note": "(stereo unspecified)", "values": [
      {"measurement": "pIC50", "result": 6.099},
      {"measurement": "IC50", "result": 651, "unit": "nM"}
    ]},
    {"smiles": "COCC(O)CN(C)c1ccnc2cc(Br)ccc12", "note": "(stereo unspecified)", "values": [
      {"measurement": "pIC50", "result": 6.091},
      {"measurement": "IC50", "result": 834, "unit": "nM"}
    ]},
    {"smiles": "CCc1cc(CNCc2ccccc2N(C)C2CCN(C)CC2)on1", "values": [
      {"measurement": "pIC50", "result": 6.107},
      {"measurement": "IC50", "result": 828, "unit": "nM"}
    ]},
    {"smiles": "CC(C)N1CCC2(CCCN(c3nccc(C(F)(F)F)n3)C2)CC1.O=C(O)C(F)(F)F", "values": [
      {"measurement": "pIC50", "result": 6.114},
      {"measurement": "IC50", "result": 550, "unit": "nM"}
    ]},
    {"smiles": "Nc1cc(-c2c[nH]nc2C2CCCN2CCCc2ccccc2)ccn1", "note": "(stereo unspecified)", "values": [
      {"measurement": "pIC50", "result": 6.087},
      {"measurement": "IC50", "result": 785, "unit": "nM"}
    ]},
    {"smiles": "COc1cccc(OC)c1CN1CC(=O)N(c2ccc(C)cc2)CC1C", "note": "(stereo unspecified)", "values": [
      {"measurement": "pIC50", "result": 5.987},
      {"measurement": "IC50", "result": 877, "unit": "nM"}
    ]},
    {"smiles": "COCCOc1ccccc1CNCC1COC2(CCCC2)O1", "note": "(stereo unspecified)", "values": [
      {"measurement": "pIC50", "result": 6.238},
      {"measurement": "IC50", "result": 727, "unit": "nM"}
    ]},
    {"smiles": "Cc1ccc(CN(c2cc(C)nc3nc(C(F)(F)F)nn23)C2CC2)cc1", "values": [
      {"measurement": "pIC50", "result": 6.41},
      {"measurement": "IC50", "result": 282, "unit": "nM"}
    ]}
  ]
}
